The values below come from PubChem BioAssay (NCI).

Test systems include KM12 colon; SK-MEL-28 melanoma; RXF 393 renal; HOP-62 NSCLC; IGROV1 ovarian; SR leukemia; HCT-15 colon; A549 NSCLC; BT-549 breast; OVCAR-4 ovarian.
Holding throughout (assay): NCI-60 cell line screen, 48 h

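Values below derive from 48-hour exposures of cells grown in 96-well plates, with endpoints linearly interpolated between the two concentrations bracketing the appropriate inhibition level. Here, GI50 denotes the concentration required for 50% inhibition of growth. The concentration for full growth arrest is given as TGI.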 Bounds are passed on as bounds.

On to `O=C1CCCC2=C1CC1=C(CCCC1=O)N2c1ccc(Cl)cc1`, for which the TGI in the assay with KM12 colon, in the assay with SK-MEL-28 melanoma, in the assay with RXF 393 renal, in the assay with HOP-62 NSCLC, in the assay with IGROV1 ovarian and in the assay with SR leukemia was above 100 µM in each case. Also, the TGI in the assay on HCT-15 colon, with A549 NSCLC, in the assay on BT-549 breast and with OVCAR-4 ovarian was above 100 µM in each case.
For `O=C(O)CCCN1C(=O)/C(=C/C(Cl)=C/c2ccccc2)SC1=S`, the GI50 with KM12 colon is 1.47 µM; in the assay on SK-MEL-28 melanoma, 1.66 µM; with RXF 393 renal, 1.36 µM; in the assay on HOP-62 NSCLC it was 2.94 µM; in the assay on IGROV1 ovarian, 2.07 µM; with SR leukemia, 0.719 µM. The GI50 was 1.03 µM with HCT-15 colon, 3.02 µM in the assay with A549 NSCLC, 1.91 µM in the assay with BT-549 breast and 2.77 µM with OVCAR-4 ovarian. Moreover, the TGI in the assay on KM12 colon is 3.54 µM; in the assay on SK-MEL-28 melanoma, 3.47 µM; with RXF 393 renal, 2.78 µM; with HOP-62 NSCLC it was 10.5 µM; with IGROV1 ovarian, 6.04 µM; in the assay on SR leukemia, 15.3 µM. The TGI in the assay on HCT-15 colon is 6.06 µM; with A549 NSCLC, 11.9 µM; with BT-549 breast it was 4.8 µM; in the assay with OVCAR-4 ovarian, 14.3 µM.
Turning to `O=C(CSSCC(=O)c1ccc(Cl)cc1)c1ccc(Cl)cc1`, the GI50 in the assay with KM12 colon was 3.82 µM; in the assay with SK-MEL-28 melanoma, 5.83 µM; in the assay with RXF 393 renal, 4.49 µM; in the assay on HOP-62 NSCLC, 5.03 µM; in the assay with IGROV1 ovarian, 5.83 µM; in the assay on SR leukemia, 2.82 µM. In addition, the GI50 in the assay with HCT-15 colon was 6.73 µM; in the assay with A549 NSCLC, 10.4 µM; in the assay with BT-549 breast it was 8.92 µM; in the assay with OVCAR-4 ovarian, 18.3 µM. For the same compound, the TGI is 24.4 µM with KM12 colon; 22.5 µM with SK-MEL-28 melanoma; 14.7 µM in the assay on RXF 393 renal; 21.7 µM with HOP-62 NSCLC; 26.6 µM with IGROV1 ovarian; above 100 µM with SR leukemia. Also, the TGI with HCT-15 colon amounted to 28.6 µM; with A549 NSCLC, 43.2 µM; with BT-549 breast, 39.9 µM; in the assay on OVCAR-4 ovarian it was 93.9 µM.
Turning to `O=C(Nc1cc(Cl)c(I)c(Cl)c1)C(F)(F)F`, the TGI with KM12 colon was 85.4 µM; in the assay with SK-MEL-28 melanoma it was 74 µM; with RXF 393 renal it was 34.5 µM; in the assay with HOP-62 NSCLC, above 100 µM; in the assay with IGROV1 ovarian it was above 100 µM; with SR leukemia, 99.5 µM. The TGI in the assay with HCT-15 colon was 45.9 µM; in the assay on BT-549 breast, 63 µM; with OVCAR-4 ovarian, above 100 µM.
As for `Nc1c(C(=O)c2cccc(-c3cccnc3)c2)cnn1-c1ccc(F)cc1`, the GI50 with KM12 colon is above 25 µM; in the assay on SK-MEL-28 melanoma it was above 25 µM; with RXF 393 renal, above 18.3 µM; with HOP-62 NSCLC it was above 17.3 µM; with IGROV1 ovarian it was above 25 µM; in the assay with SR leukemia, above 25 µM. Moreover, the GI50 is above 25 µM in the assay with HCT-15 colon, above 25 µM with A549 NSCLC, above 13.2 µM in the assay with BT-549 breast and above 16.3 µM with OVCAR-4 ovarian. For the same compound, the TGI in the assay on KM12 colon, with SK-MEL-28 melanoma, in the assay on RXF 393 renal, with HOP-62 NSCLC, in the assay on IGROV1 ovarian and in the assay with SR leukemia was above 25 µM throughout. Moreover, the TGI in the assay on HCT-15 colon, with A549 NSCLC, in the assay on BT-549 breast and in the assay with OVCAR-4 ovarian was above 25 µM each time.
Regarding `CCCC(=O)Oc1ccc(/C(=C(\C)c2ccc(Cl)cc2)c2ccc(OCCN(CC)CC)cc2)cc1`, the GI50 in the assay with KM12 colon is 3.05 µM; with SK-MEL-28 melanoma, 1.91 µM; in the assay on RXF 393 renal it was 1.72 µM; in the assay on HOP-62 NSCLC, 2.16 µM; in the assay with IGROV1 ovarian it was 6.99 µM; with SR leukemia, 1.98 µM. Moreover, the GI50 in the assay on HCT-15 colon was 1.68 µM; with A549 NSCLC, 2.58 µM; with BT-549 breast it was 4.85 µM; in the assay on OVCAR-4 ovarian, 4.16 µM. Further, the TGI was 10.7 µM in the assay on KM12 colon; 3.91 µM in the assay on SK-MEL-28 melanoma; 3.55 µM with RXF 393 renal; 4.68 µM in the assay on HOP-62 NSCLC; 21.6 µM in the assay on IGROV1 ovarian; 6.92 µM in the assay on SR leukemia. Moreover, the TGI in the assay on HCT-15 colon turned out to be 3.73 µM; in the assay on A549 NSCLC, 6.91 µM; in the assay with BT-549 breast it was 18.9 µM; with OVCAR-4 ovarian it was 19.4 µM.
Turning to `O=C(O)c1cccc([As]=[As]c2cccc(C(=O)O)c2)c1` (centres undefined), the TGI was above 100 µM with KM12 colon; above 100 µM in the assay on SK-MEL-28 melanoma; 81.8 µM in the assay on RXF 393 renal; above 100 µM in the assay on HOP-62 NSCLC; above 100 µM in the assay on IGROV1 ovarian; 89.5 µM in the assay with SR leukemia. The TGI with HCT-15 colon, in the assay on A549 NSCLC, in the assay on BT-549 breast and in the assay on OVCAR-4 ovarian was above 100 µM throughout.
On to `O=C1c2ccccc2C(=O)c2c1ccc1conc21`, for which the TGI in the assay on KM12 colon was 7.45 µM; with SK-MEL-28 melanoma, 7.94 µM; in the assay with RXF 393 renal, 5.64 µM; in the assay on HOP-62 NSCLC, 9.11 µM; in the assay with IGROV1 ovarian, 5.88 µM; in the assay with SR leukemia, 18.3 µM. In addition, the TGI in the assay on HCT-15 colon came out at 5.66 µM; in the assay with A549 NSCLC, 11.2 µM; in the assay on BT-549 breast, 3.68 µM; with OVCAR-4 ovarian, 2.02 µM.
Regarding `O=C(CCN1CCCC1)Nc1ccc2c(Nc3ccc(F)cc3)c3ccccc3nc2c1`, the GI50 is 1.48 µM in the assay with KM12 colon; 1.7 µM in the assay on SK-MEL-28 melanoma; 1.23 µM with RXF 393 renal; 0.864 µM in the assay on HOP-62 NSCLC; 1.03 µM in the assay with IGROV1 ovarian; 0.174 µM with SR leukemia. Moreover, the GI50 in the assay on HCT-15 colon was 0.699 µM; with A549 NSCLC, 0.424 µM; in the assay on BT-549 breast it was 1.73 µM; in the assay on OVCAR-4 ovarian it was 1.21 µM. Further, the TGI in the assay on KM12 colon worked out at 4.11 µM; in the assay with SK-MEL-28 melanoma it was 3.24 µM; with RXF 393 renal, 2.64 µM; with HOP-62 NSCLC it was 3.7 µM; in the assay with IGROV1 ovarian it was 3.27 µM; in the assay on SR leukemia it was 2.3 µM. The TGI in the assay with HCT-15 colon stood at 2.53 µM; with A549 NSCLC it was 3.62 µM; with BT-549 breast, 4.28 µM; in the assay with OVCAR-4 ovarian, 3.03 µM.
